Measured values: ChEMBL document CHEMBL6127139, “Lysine-Targeted Covalent Inhibitors of PI3Kδ Synthesis and Screening by In Situ Interaction Upgradation” (J Med Chem, 2024)

What was measured:
[1] = system: SU-DHL-6; experiment: Inhibition of AKT phosphorylation in human SU-DHL-6 cells incubated for 24 hrs by Western blot analysis; format: cell-based; details: dose 10-1000 nM
[2] = system: SU-DHL-6; experiment: Induction of apoptosis in human SU-DHL-6 cells assessed as late apoptotic cells at 1 uM incubated for 48 hrs by Annexin V-FITC/PI staining based flow cytometric analysis (reference value: 4.12 %); format: functional
[3] = system: SU-DHL-6; experiment: Induction of apoptosis in human SU-DHL-6 cells assessed as early apoptotic cells at 1 uM incubated for 48 hrs by Annexin V-FITC/PI staining based flow cytometric analysis (reference value: 5.02 %); format: functional
[4] = system: SU-DHL-6; experiment: Induction of apoptosis in human SU-DHL-6 cells assessed as necrotic cells at 0.01 uM incubated for 48 hrs by Annexin V-FITC/PI staining based flow cytometric analysis (reference value: 1.05 %); format: functional

## COc1ncc(-c2ccc3ncnc(N[C@H]4CCN(C(=O)C5CCOCC5)C4)c3n2)cc1C(=O)Oc1ccccc1
[1]
  inhibition: Dose-Dependent Effect
[2]
  Activity: 20.35%
[3]
  Activity: 63.74%
[4]
  Activity: 0.52%
